23 molecules from ChEMBL document CHEMBL1146018, “The design and synthesis of a tricyclic single-nitrogen scaffold that serves as a 5-HT2C receptor agonist” (Bioorg Med Chem Lett, 2006) can be followed below.

The source made the active and inactive calls.

Data set [1] deals with Serotonin receptor (2b and 2c) (Homo sapiens) (UniProt P41595+P28335). Nature of the data set: Selectivity for 5HT2C over 5HT2B. Type of data set: protein assay.
Data set [2] addresses Serotonin 2 receptors; 5-HT2a & 5-HT2c (Homo sapiens) (UniProt P28223+P28335). Description: Selectivity for 5HT2C over 5HT2A. It is filed as protein assay.
In data set [3] the target is T1, 5-hydroxytryptamine receptor 2C (Homo sapiens, UniProt P28335).
T1 sequence (P28335 whole entry): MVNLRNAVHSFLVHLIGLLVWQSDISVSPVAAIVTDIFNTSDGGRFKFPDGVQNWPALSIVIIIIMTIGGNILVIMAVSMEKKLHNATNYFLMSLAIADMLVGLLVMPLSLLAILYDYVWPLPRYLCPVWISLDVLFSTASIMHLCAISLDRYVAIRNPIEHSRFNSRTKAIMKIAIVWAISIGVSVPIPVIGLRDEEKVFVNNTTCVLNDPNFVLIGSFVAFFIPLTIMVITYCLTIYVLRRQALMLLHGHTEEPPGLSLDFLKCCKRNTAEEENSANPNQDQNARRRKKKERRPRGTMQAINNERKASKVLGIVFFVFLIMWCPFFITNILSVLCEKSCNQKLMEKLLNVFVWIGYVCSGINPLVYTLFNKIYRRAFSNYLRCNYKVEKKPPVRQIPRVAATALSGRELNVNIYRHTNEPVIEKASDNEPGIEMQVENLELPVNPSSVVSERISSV
Description: Binding affinity to 5HT2C.

Data set [4] has as its target T1, 5-hydroxytryptamine receptor 2C. Description: […] of 5HT2C assessed as intracellular calcium concentration. It is filed as functional, cell-based. For orientation: Calcium assays in cells follow changes in intracellular calcium, usually with a dye or a luminescent sensor.
The nature of data set [5]: Oral bioavailability in dog at 10.6 mg/kg, po. The following applies: in vivo. It is filed as ADME, organism-based, Canis lupus familiaris.
Data set [6] is described as follows: Oral bioavailability in rat at 10.6 mg/kg, po. It is filed as ADME, organism-based. As to conditions: in vivo.
Data set [7] can be described thus: Half life in rat at 1.2 mg/kg, iv. It is filed as ADME, organism-based. Also on record: dose 1.2 mg/kg, route intravenous. As to conditions: in vivo.
Data set [8] concerns Rattus norvegicus. Description: Reduction of food intake in rat at 10 mg/kg, ip after 4 hrs. Type of data set: functional, organism-based. Also on record: dose 10 mg/kg.
Data set [9] is described as follows: Clearance in dog at 1.0 mg/kg, iv. Also on record: dose 1 mg/kg, route intravenous. It is filed as ADME, organism-based, Canis lupus familiaris. As to conditions: in vivo.
A short description of data set [10]: Clearance in rat at 1.2 mg/kg, iv. Type of data set: ADME, organism-based. Also noted: dose 1.2 mg/kg, route intravenous. As to conditions: in vivo.
Data set [11] has as its system Rattus norvegicus. Description: Reduction of food intake in rat at 20 mg/kg, ip after 24 hrs. Type of data set: functional, organism-based. Also on record: dose 20 mg/kg.
The nature of data set [12]: Half life in dog at 1.0 mg/kg, iv. As to conditions: in vivo. Also noted: dose 1 mg/kg, route intravenous. It is filed as ADME, organism-based, Canis lupus familiaris.
Data set [13] relates to Rattus norvegicus. Nature of the data set: Reduction of food intake in ip dosed rat. It is filed as functional, organism-based.
Data set [14] can be described thus: Ratio of drug level in brain against plasma measured as AUC cortex/AUC plasma at 1.2 mg/kg, iv. The following applies: rat, read-out: BPR. Also noted: dose 1.2 mg/kg, route intravenous. Type of data set: ADME, organism-based.

Serotonin 2 receptors; 5-HT2a & 5-HT2c (Homo sapiens), sequence (P28223 whole entry, looked up, one chain of several): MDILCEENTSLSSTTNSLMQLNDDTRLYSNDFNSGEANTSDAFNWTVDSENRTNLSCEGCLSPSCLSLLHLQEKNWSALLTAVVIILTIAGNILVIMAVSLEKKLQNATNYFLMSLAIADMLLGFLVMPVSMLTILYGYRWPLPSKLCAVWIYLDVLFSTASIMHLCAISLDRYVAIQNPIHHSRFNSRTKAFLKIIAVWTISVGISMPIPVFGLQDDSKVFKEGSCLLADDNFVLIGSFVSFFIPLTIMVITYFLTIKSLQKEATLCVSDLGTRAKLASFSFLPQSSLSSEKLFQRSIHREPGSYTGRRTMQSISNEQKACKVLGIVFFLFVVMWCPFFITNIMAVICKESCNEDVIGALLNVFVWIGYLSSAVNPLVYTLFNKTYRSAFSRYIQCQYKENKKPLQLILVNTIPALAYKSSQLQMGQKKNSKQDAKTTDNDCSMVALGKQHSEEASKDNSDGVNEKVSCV

As to `C[C@@H]1c2cc(Cl)c(Cl)cc2[C@H]2CNC[C@@H]12`, the Selectivity ratio in data set [1] was found to be 3; in data set [2], 2. Also, the Ki (in general, a dissociation constant, usually derived from enzyme kinetics or from competition with a known ligand) in data set [3] is 1140 nM.

Turning to `COc1cc2c(cc1Br)[C@H](C)[C@@H]1CNC[C@H]21`, the Selectivity ratio was 81 in [1] and 12 in [2]. Further, the inhibition constant (Ki) in data set [3] was 27 nM.

In [3], `CC1c2ccc(F)cc2[C@H]2CNC[C@@H]12` (mixture of isomers) came in with an inhibition constant Ki of 3010 nM.

Consider `CC1c2cc(F)ccc2[C@H]2CNC[C@@H]12` (mixture of isomers), for which the Ki in [3] was greater than 10000 nM.

Turning to `Cc1cccc2c1C(C)[C@@H]1CNC[C@H]21` (mixture of isomers), the Ki in [3] turned out to be 3380 nM.

Consider `C[C@H]1c2c(ccc(Cl)c2Cl)[C@H]2CNC[C@H]21`, for which the Selectivity ratio turned out to be 73 in data set [1] and 50 in data set [2]. Further, in data set [3], the Ki worked out at 5 nM.

For `Cc1ccc2c(c1)[C@H]1CNC[C@H]1C2C` (mixture of isomers), the inhibitory constant (Ki) in [3] turned out to be 3310 nM.

In turn, `COc1cc2c(cc1Cl)C(C)[C@@H]1CNC[C@H]21` (mixture of isomers) had a Ki in [3] of 530 nM.

As to `CCOc1cc2c(cc1Cl)[C@H](C)[C@@H]1CNC[C@H]21`, the values for the Selectivity ratio in [1] and in data set [2] were 31 and 9, respectively. In [3], the inhibition constant Ki turned out to be 231 nM.

`Clc1ccc2c(c1)C[C@@H]1CNC[C@H]21`: the values for the Selectivity ratio in data set [1] and in [2] were 19 and 14, respectively. In addition, in [4], the concentration for a half-maximal effect (EC50) – broadly, the midpoint of the concentration-response curve – is 11 nM.

Molecule `CC1c2cc(Cl)c(Cl)cc2[C@H]2CNC[C@@H]12` (mixture of isomers) displayed an inhibition constant Ki in data set [3] of 103 nM.

Consider `Cc1cc2c(cc1Cl)[C@H]1CNC[C@H]1C2C` (mixture of isomers), for which the affinity in data set [3] corresponds to a Ki of 465 nM.

On to `Cc1ccc2c(c1)C(C)[C@@H]1CNC[C@H]21` (mixture of isomers), for which the inhibition constant Ki in data set [3] amounted to 1700 nM.

`Cc1cc2c(cc1Cl)C(C)[C@@H]1CNC[C@H]21` (mixture of isomers) returned an inhibition constant (Ki) in data set [3] of 107 nM.

As to `C[C@H]1c2cc(Cl)ccc2[C@H]2CNC[C@H]21`, the results for the Selectivity ratio in [1] and in data set [2] were 132 and 56, respectively. Moreover, in data set [4], the concentration for a half-maximal effect (EC50) was determined as 54 nM. Besides, in data set [3], the inhibition constant (Ki) is 911 nM.

In the case of `Cc1cc2c(cc1Cl)[C@H]1CNC[C@H]1[C@H]2C`, the values for the Selectivity ratio in [1] and in [2] were 14 and 11, respectively. For the same molecule, the affinity in [3] corresponds to a Ki of 134 nM.

With `C[C@H]1c2cc(Cl)c(O)cc2[C@H]2CNC[C@H]21`, the Selectivity ratio in [1] amounted to 63; in data set [2] it was 27. In data set [3], this molecule had a Ki of 27 nM.

In the case of `Cc1cccc2c1[C@H]1CNC[C@H]1C2C` (mixture of isomers), the Ki in data set [3] was 1850 nM.

`Cc1cc2c(cc1Cl)[C@H](C)[C@@H]1CNC[C@H]21`: the Selectivity ratio worked out at 32 in data set [1] and 8 in [2]. Moreover, the inhibitory constant (Ki) in data set [3] was determined as 155 nM.

As to `C[C@H]1c2cc(Cl)c(Cl)cc2[C@H]2CNC[C@H]21`, the Selectivity ratio in [1] is 32; in data set [2] it was 8. Moreover, in data set [3], the inhibition constant (Ki) came to 155 nM.

`Cc1cc2c(cc1Br)C(C)[C@@H]1CNC[C@H]21` (mixture of isomers) returned an inhibition constant Ki in [3] of 463 nM.

For `Cc1cc2c(cc1Br)[C@H]1CNC[C@H]1C2C` (mixture of isomers), the Ki in data set [3] came out at 207 nM.

Regarding `COc1cc2c(cc1Cl)[C@H](C)[C@@H]1CNC[C@H]21`, the bioavailability (commonly the share of a dose that reaches the circulation, judged against a reference dose that is usually intravenous) in data set [5] came to 80%; in [6] it was 40%. Further, the half-life – broadly, the time needed for the level to fall by half in the phase considered – in data set [7] was 1.8 h; in [12], 3.5 h. The Selectivity ratio stood at 235 in data set [1] and 73 in data set [2]. The outcome in the data set with Rattus norvegicus [8] and in the data set on Rattus norvegicus [11] was Active. For the same molecule, the values for the clearance in data set [9] and in data set [10] were 39 mL/min/kg and 31 mL/min/kg, respectively. The EC50 in data set [4] amounted to 6 nM. In addition, the Ki in data set [3] was 14 nM. Moreover, the Activity entry in the data set on Rattus norvegicus [13] was “Dose-dependent effect”. Also, the Kp in data set [14] amounted to 15.
